Reference: patent US12037333B2, “Pyridopyrazine and pyridotriazine inhibitors of influenza virus replication” (priority 2018, dated 2024)

These compounds were tested on Influenza type B (cell culture adapted strain B/Lee/40, ATCC VR-1535) (assay: Influenza antiviral assay: inhibition of virus-induced cytopathic effects (CPE) in MDCK cells, XTT dye reduction). Conditions: Influenza B virus, MDCK, 96 h, strain B/Lee/40, MDCK cells, CPE inhibition at 4 days.
Assay type: cell-based
In the case of `O=C1c2c(O)c(=O)ccn2N(C23c4ccccc4CC2Cc2c3ccc(F)c2F)CN1CCc1ccccc1` (stereo not drawn) [Compound A25, 1-(1,2-difluoro-9a,10-dihydroindeno[1,2-a]inden-4b(9H)-yl)-5-hydroxy-3-phenethyl-2,3-dihydro-1H-pyrido[2,1-f][1,2,4]triazine-4,6-dione], the EC50 is reported as 375 to 500 nM.
In the case of `O=C1c2c(O)c(=O)ccn2N(C23c4ccccc4CC2Cc2ccccc23)CN1Cc1ccccc1` (stereo not drawn) [Compound A4, 3-Benzyl-1-(9a,10-dihydro-9H-indeno[1,2-a]inden-4b-yl)-5-hydroxy-2,3-dihydro-1H-pyrido[2,1-f][1,2,4]triazine-4,6-dione], the EC50 is reported as > 500 nM.
In the case of `CCN1CN(C23c4ccccc4CC2Cc2ccc(F)cc23)n2ccc(=O)c(O)c2C1=O` (stereo not drawn) [Compound A52], the EC50 is reported as < 125 nM.
`COCCN1CN(C23c4ccccc4CC2Cc2c3ccc(F)c2F)n2ccc(=O)c(O)c2C1=O` (stereo not drawn) [Compound A70] was tested, and the EC50 was < 125 nM.
`CCOC12Cc3ccccc3C1(N1CN(CC)C(=O)c3c(O)c(=O)ccn31)c1ccccc1C2` (stereo not drawn) [Compound A48, 1-(9a-Ethoxy-9a,10-dihydroindeno[1,2-a]inden-4b(9H)-yl)-3-ethyl-5-hydroxy-2,3-dihydro-1H-pyrido[2,1-f][1,2,4]triazine-4,6-dione] was tested, and the EC50 was < 125 nM.
`O=C1c2c(O)c(=O)ccn2N(C23c4ccccc4CC2Cc2c(F)cccc23)CN1CC1CCOCC1` (stereo not drawn) [Compound A75] was tested, and the EC50 was < 125 nM.
For `COCCN1CN(C23c4ccccc4CC2Cc2c(F)cccc23)n2ccc(=O)c(O)c2C1=O` (stereo not drawn) [Compound A69], the EC50 was < 125 nM.
`CC1N(CC2CC2)C(=O)c2c(O)c(=O)ccn2N1C12c3ccccc3CC1Cc1c2ccc(F)c1F` (stereo not drawn) [Compound A128] showed an EC50 of 125 to 250 nM.
In the case of `CCC1N(C)C(=O)c2c(O)c(=O)ccn2N1C12c3ccccc3CC1Cc1ccccc12` (stereo not drawn) [Compound A166], the EC50 is reported as < 125 nM.
`O=C1c2c(O)c(=O)ccn2N(C23c4ccccc4CC2Cc2c(F)cccc23)CN1CCCF` (stereo not drawn) [Compound A79] was tested, and the EC50 was < 125 nM.
For `COCCN1CN(C23c4cccc(F)c4CC2Cc2c(F)cccc23)n2ccc(=O)c(O)c2C1=O` (stereo not drawn) [Compound A49], the EC50 was < 125 nM.
`O=C1c2c(O)c(=O)ccn2N(C23c4ccccc4CC2Cc2cc(F)c(F)cc23)CN1CC1CCOCC1` (stereo not drawn) [Compound A16, 1-(2,3-Difluoro-9a,10-dihydro-9H-indeno[1,2-a]inden-4b-yl)-5-hydroxy-3-(tetrahydro-pyran-4-ylmethyl)-2,3-dihydro-1H-pyrido[2,1-f][1,2,4]triazine-4,6-dione] was tested, and the EC50 was < 125 nM.
For `O=C1c2c(O)c(=O)ccn2N(C23c4ccccc4CC2Cc2c(F)cccc23)CN1CCF` (stereo not drawn) [Compound A68], the EC50 was < 125 nM.
For `CCN1C(=O)c2c(O)c(=O)ccn2N(C23c4ccccc4CC2Cc2c(F)cccc23)C1C` (stereo not drawn) [Compound A138], the EC50 was < 125 nM.
`O=C1c2c(O)c(=O)ccn2N(C23c4ccccc4CC2Cc2c(F)cccc23)CN1CC1CCCCO1` (stereo not drawn) [Compound A133] was tested, and the EC50 was 125 to 250 nM.
`CC1N(C)C(=O)c2c(O)c(=O)ccn2N1C12c3ccccc3CC1Cc1c(Cl)cccc12` (stereo not drawn) [Compound A94] gave an EC50 of 250 to 375 nM.
For `CCN1CN(C23c4ccccc4CC2Cc2c3ccc(F)c2C)n2ccc(=O)c(O)c2C1=O` (stereo not drawn) [Compound A77], the EC50 was 125 to 250 nM.
In the case of `O=C1c2c(O)c(=O)ccn2N(C23c4ccccc4CC2Cc2ccccc23)CN1CCOc1ccccc1` (stereo not drawn) [Compound A7, 1-(9a,10-Dihydro-9H-indeno[1,2-a]inden-4b-yl)-5-hydroxy-3-(2-phenoxy-ethyl)-2,3-dihydro-1H-pyrido[2,1-t][1,2,4]triazine-4,6-dione], the EC50 is reported as < 125 nM.
For `O=C1c2c(O)c(=O)ccn2N(C23c4ccccc4CC2Cc2c3ccc(F)c2F)CN1CC1CCCC1` (stereo not drawn) [Compound A100], the EC50 was 250 to 375 nM.
`CCOC12Cc3ccccc3C1(N1CN(C)C(=O)c3c(O)c(=O)ccn31)c1ccccc1C2` (stereo not drawn) [Compound A57] was tested, and the EC50 was < 125 nM.
`CCN1CN(C23c4ccccc4CC2(C)Cc2c3ccc(F)c2F)n2ccc(=O)c(O)c2C1=O` (stereo not drawn) [Compound A164] was tested, and the EC50 was < 125 nM.
`CCN1CN(C23c4ccccc4CC2Cc2c(Cl)cccc23)n2ccc(=O)c(O)c2C1=O` (stereo not drawn) [Compound A55] was tested, and the EC50 was < 125 nM.
With `CC1N(C)C(=O)c2c(O)c(=O)ccn2N1C12c3cccc(F)c3CC1Cc1c(F)cccc12` (stereo not drawn) [Compound A73] the EC50 was < 125 nM.
With `CN1CN(C23C(=Cc4ccccc42)Cc2ccccc23)n2ccc(=O)c(O)c2C1=O` (stereo not drawn) [Compound A30, 5-hydroxy-1-(indeno[1,2-a]inden-4b(9H)-yl)-3-methyl-2,3-dihydro-1H-pyrido[2,1-f][1,2,4]triazine-4,6-dione] the EC50 was 375 to 500 nM.
`CCN1CN(C23c4ccccc4CC2(CC)Cc2ccccc23)n2ccc(=O)c(O)c2C1=O` (stereo not drawn) [Compound A157] was tested, and the EC50 was 125 to 250 nM.
Work on `O=C1c2c(O)c(=O)ccn2N(C23c4ccccc4CC2Cc2c3ccc(F)c2F)CN1CC(F)F` (stereo not drawn) [Compound A84] yielded an EC50 of 125 to 250 nM.
For `CC1N(CC(F)F)C(=O)c2c(O)c(=O)ccn2N1C12c3ccccc3CC1Cc1c(F)cccc12` (stereo not drawn) [Compound A139], the EC50 was 125 to 250 nM.
With `CC(C)CN1CN(C23c4cccc(F)c4CC2Cc2c(F)cccc23)n2ccc(=O)c(O)c2C1=O` (stereo not drawn) [Compound A156] the EC50 was 125 to 250 nM.
With `CC(C)N1CN(C23c4ccccc4CC2(C)Cc2ccccc23)n2ccc(=O)c(O)c2C1=O` (stereo not drawn) [Compound A50, 5-hydroxy-3-isopropyl-1-(9a-methyl-9a,10-dihydroindeno[1,2-a]inden-4b(9H)-yl)-2,3-dihydro-1H-pyrido[2,1-f] [1,2,4] triazine-4,6-dione] the EC50 was < 125 nM.
With `CN1CN(C23c4ccccc4CC2Cc2ccccc23)n2ccc(=O)c(O)c2C1=O` (stereo not drawn) [Compound A1, 1-(9a, 10-dihydroindeno[1,2-a]inden-4b(9H)-yl)-5-hydroxy-3-methyl-2,3-dihydro-1H-pyrido[2,1-f][1,2,4]triazine-4,6-dione] the EC50 was 250 to 375 nM.
For `O=C1c2c(O)c(=O)ccn2N(C23c4ccccc4CC2Cc2cc(F)c(F)cc23)CN1Cc1ccc(F)cc1` (stereo not drawn) [Compound A23, 1-(2,3-Difluoro-9a,10-dihydro-9H-indeno[1,2-a]inden-4b-yl)-3-(4-fluoro-benzyl)-5-hydroxy-2,3-dihydro-1H-pyrido[2,1-f][1,2,4]triazine-4,6-dione], the EC50 was 250 to 375 nM.
`CCN1CN(C23c4ccccc4CC2Cc2cc(F)c(F)cc23)n2ccc(=O)c(O)c2C1=O` (stereo not drawn) [Compound A10, 1-(2,3-Difluoro-9a,10-dihydro-9H-indeno[1,2-a]inden-4b-yl)-3-ethyl-5-hydroxy-2,3-dihydro-1H-pyrido[2,1-f][1,2,4]triazine-4,6-dione] was tested, and the EC50 was > 500 nM.
In the case of `CC1N(C)C(=O)c2c(O)c(=O)ccn2N1C12c3ccccc3CC1Cc1c(F)cccc12` (stereo not drawn) [Compound A60], the EC50 is reported as < 125 nM.
With `O=C1c2c(O)c(=O)ccn2N(C23c4cccc(F)c4CC2Cc2c(F)cccc23)CN1CCCF` (stereo not drawn) [Compound A72] the EC50 was < 125 nM.
For `O=C1c2c(O)c(=O)ccn2N(C23c4ccccc4CC2Cc2c(F)cccc23)CN1CC(F)F` (stereo not drawn) [Compound A83], the EC50 was < 125 nM.
Compound `CC1N(CC2CC2)C(=O)c2c(O)c(=O)ccn2N1C12c3ccccc3CC1Cc1c(F)cccc12` (stereo not drawn) [Compound A129] has an EC50 of 125 to 250 nM.
In the case of `O=C1c2c(O)c(=O)ccn2N(C23c4cccc(F)c4CC2Cc2c(F)cccc23)CN1CCc1ccccc1` (stereo not drawn) [Compound A86], the EC50 is reported as < 125 nM.
In the case of `CC(C)N1CN(C23c4cccc(F)c4CC2(C)Cc2c(F)cccc23)n2ccc(=O)c(O)c2C1=O` (stereo not drawn) [Compound A89], the EC50 is reported as 375 to 500 nM.
Compound `CCN1CN(C23c4ccccc4CC2Cc2c3ccc(F)c2F)n2ccc(=O)c(O)c2C1=O` (stereo not drawn) [Compound A14, 1-(1,2-Difluoro-9a,10-dihydro-9H-indeno[1,2-a]inden-4b-yl)-3-ethyl-5-hydroxy-2,3-dihydro-1H-pyrido[2,1-f][1,2,4]triazine-4,6-dione] has an EC50 of 125 to 250 nM.
In the case of `CN1CN(C23c4ccccc4CC2(C)Cc2cc(F)ccc23)n2ccc(=O)c(O)c2C1=O` (stereo not drawn) [Compound A126], the EC50 is reported as < 125 nM.
In the case of `CCN1CN(C23c4ccccc4CC2(CC)Cc2c3ccc(F)c2F)n2ccc(=O)c(O)c2C1=O` (stereo not drawn) [Compound A56], the EC50 is reported as < 125 nM.
Work on `O=C1c2c(O)c(=O)ccn2N(C23c4ccccc4CC2Cc2c(Cl)cccc23)CN1CC1CCCC1` (stereo not drawn) [Compound A104] yielded an EC50 of 125 to 250 nM.
Compound `O=C1c2c(O)c(=O)ccn2N(C23c4ccccc4CC2Cc2c(Cl)cccc23)CN1CCF` (stereo not drawn) [Compound A111] has an EC50 of 125 to 250 nM.
With `CC1N(CCF)C(=O)c2c(O)c(=O)ccn2N1C12c3ccccc3CC1Cc1c(Cl)cccc12` (stereo not drawn) [Compound A115] the EC50 was 250 to 375 nM.
In the case of `O=C1c2c(O)c(=O)ccn2N(C23c4ccccc4CC2Cc2c3ccc(F)c2F)CN1CC1CC1` (stereo not drawn) [Compound A9, 3-Cyclopropylmethyl-1-(1,2-difluoro-9a,10-dihydro-9H-indeno[1,2-a]inden-4b-yl)-5-hydroxy-2,3-dihydro-1H-pyrido[2,1-f][1,2,4]triazine-4,6-dione], the EC50 is reported as 125 to 250 nM.
`O=C1c2c(O)c(=O)ccn2N(C23c4ccccc4CC2Cc2c(Cl)cccc23)CN1C1CCC1` (stereo not drawn) [Compound A103] gave an EC50 of 125 to 250 nM.
For `CC(C)CN1C(=O)c2c(O)c(=O)ccn2N(C23c4ccccc4CC2Cc2c(Cl)cccc23)C1C` (stereo not drawn) [Compound A118], the EC50 was 250 to 375 nM.
For `CN1CN(C23c4cccc(F)c4CC2Cc2c(F)cccc23)n2ccc(=O)c(O)c2C1=O` (stereo not drawn) [Compound A12, 1-(1,8-Difluoro-9a,10-dihydro-9H-indeno[1,2-a]inden-4b-yl)-5-hydroxy-3-methyl-2,3-dihydro-1H-pyrido[2,1-f][1,2,4]triazine-4,6-dione], the EC50 was > 500 nM.
In the case of `COCCN1CN(C23c4ccccc4CC2Cc2ccccc23)n2ccc(=O)c(O)c2C1=O` (stereo not drawn) [Compound A110], the EC50 is reported as < 125 nM.
Work on `CC1N(CCF)C(=O)c2c(O)c(=O)ccn2N1C12c3ccccc3CC1Cc1c(F)cccc12` (stereo not drawn) [Compound A121] yielded an EC50 of 125 to 250 nM.
For `CCCN1CN(C23c4ccccc4CC2Cc2c3ccc(F)c2F)n2ccc(=O)c(O)c2C1=O` (stereo not drawn) [Compound A148], the EC50 was 125 to 250 nM.

Same assay, conditions: strain B/Lee/40, MDCK cells, CPE inhibition at 4 days
`CCN1CN(C23c4ccccc4CC2Cc2c3ccc(F)c2F)n2ccc(=O)c(O)c2C1=O` (stereo not drawn) [Compound A45] was tested, and the EC50 was < 125 nM.
In the case of `CN1CN(C23c4ccccc4CC2Cc2c3ccc(F)c2Cl)n2ccc(=O)c(O)c2C1=O` (stereo not drawn) [Compound A90], the EC50 is reported as < 125 nM.
`CCN1CN(C23c4cccc(F)c4CC2Cc2c(F)cccc23)n2ccc(=O)c(O)c2C1=O` (stereo not drawn) [Compound A43] was tested, and the EC50 was < 125 nM.
